Assays:
[1] = target: T1, EP3 receptor (Homo sapiens, UniProt P43115); test: [3H]-PGE2 binding assay (EP3 competition binding); conditions: read-out: [3H]-PGE2 Binding Ki
T1 construct: purchased Millipore HTS092M
T1 sequence (P43115 1-390): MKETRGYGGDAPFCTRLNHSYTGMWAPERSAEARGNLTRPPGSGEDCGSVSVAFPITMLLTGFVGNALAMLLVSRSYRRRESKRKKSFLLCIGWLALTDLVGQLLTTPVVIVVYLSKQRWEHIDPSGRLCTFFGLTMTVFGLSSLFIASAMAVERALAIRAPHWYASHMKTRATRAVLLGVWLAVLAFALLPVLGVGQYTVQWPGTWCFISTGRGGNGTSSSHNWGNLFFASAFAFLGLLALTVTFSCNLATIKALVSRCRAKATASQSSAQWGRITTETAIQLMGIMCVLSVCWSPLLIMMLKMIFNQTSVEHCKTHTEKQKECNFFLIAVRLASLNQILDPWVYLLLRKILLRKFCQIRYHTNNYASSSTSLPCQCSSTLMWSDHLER
In short: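 Scintillation-bead competition binding with EP3 membranes (2 μg/well), 2 nM [3H]-PGE2, 0.1% DMSO, in 50 mM Tris, 10 mM MgCl2, 1 mM EDTA, pH 7.4.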

[2] = target: T1, EP3 receptor; test: CHO cell cAMP assay (forskolin and sulprostone stimulated, HTRF); format: cell-based; conditions: CHO cells; sulprostone 700 nM (EC80) and FSK 2 μM (EC70), 37° C. for 30 minutes; read-out: CHO_cAMP IC50

Row | Structure (SMILES) | Ki [1] | IC50 [2]
1 | CC(C)C(CC(=O)NCCO)c1ccc(-c2ccc3cccc(F)c3c2)[nH]c1=O (centres unmarked) [compound 258, 3-(6-(8-fluoronaphthalen-2-yl)-2-oxo-1,2-dihydropyridin-3-yl)-N-(2-hydroxyethyl)-4-methyl pentanamide] | 8 nM | 136 nM
2 | CC(C)C(CC(=O)NCCN(C)C)c1ccc(-c2ccc3cccc(F)c3c2)[nH]c1=O (centres unmarked) [compound 259, N-(2-(dimethylamino)ethyl)-3-(6-(8-fluoronaphthalen-2-yl)-2-oxo-1,2-dihydropyridin-3-yl)-4-methylpentanamide] | 28 nM | 242 nM
3 | CC(C)C(CC(=O)Nc1ncc[nH]1)c1ccc(-c2ccc3cccc(F)c3c2)[nH]c1=O (centres unmarked) [compound 261, 3-(6-(8-fluoronaphthalen-2-yl)-2-oxo-1,2-dihydropyridin-3-yl)-N-(1H-imidazol-2-yl)-4-methylpentanamide] | 20 nM | 24 nM
4 | CC(C)C1(Cc2ccc(-c3ccc4cccc(F)c4c3)[nH]c2=O)NC(=O)NC1=O (centres unmarked) [compound 263, 5-((6-(8-fluoronaphthalen-2-yl)-2-oxo-1,2-dihydropyridin-3-yl)methyl)-5-isopropylimidazolidine-2,4-dione] | 108 nM | 336 nM
5 | CC(C)C(c1ccc(-c2ccc3cccc(F)c3c2)[nH]c1=O)N(C)C(N)=O (centres unmarked) [compound 265, 1-(1-(6-(8-fluoronaphthalen-2-yl)-2-oxo-1,2-dihydropyridin-3-yl)-2-methylpropyl)-1-methylurea] | 34 nM | 249 nM
6 | CC(C)C(NC(=O)NCCN(C)C)c1ccc(-c2ccc3cccc(F)c3c2)[nH]c1=O (centres unmarked) [compound 266, 1-(2-(dimethylamino)ethyl)-3-(1-(6-(8-fluoronaphthalen-2-yl)-2-oxo-1,2-dihydropyridin-3-yl)-2-methylpropyl)urea] | 28 nM | 736 nM
7 | CC(C)C(NC(N)=O)c1ccc(-c2ccc3cccc(F)c3c2)[nH]c1=O (centres unmarked) [compound 267, 1-(1-(6-(8-fluoronaphthalen-2-yl)-2-oxo-1,2-dihydropyridin-3-yl)-2-methylpropyl)urea] | 6 nM | 14 nM
8 | CC(C)C(N/C(N)=N/C#N)c1ccc(-c2ccc3cccc(F)c3c2)[nH]c1=O (centres unmarked) [compound 268, (E)-2-cyano-1-(1-(6-(8-fluoronaphthalen-2-yl)-2-oxo-1,2-dihydropyridin-3-yl)-2-methylpropyl)quanidine] | 6 nM | 17 nM
9 | CC(C)C(Cc1ccc(-c2ccc3cccc(F)c3c2)[nH]c1=O)c1nnn[nH]1 (centres unmarked) [compound 270, 6-(8-Fluoronaphthalen-2-yl)-3-(3-methyl-2-(1H-tetrazol-5-yl)butyl)pyridin-2(1H)-one] | 164 nM | 540 nM
10 | CCOC(=O)C(=C1CCCCC1)c1ccc(-c2ccc3ccccc3c2)[nH]c1=O [compound 281, ethyl 2-cyclohexylidene-2-(6-(naphthalen-2-yl)-2-oxo-1,2-dihydropyridin-3-yl)acetate] | 37 nM | 527 nM
11 | CC1(c2ccc(-c3ccc4ccccc4c3)[nH]c2=O)CNS(=O)(=O)N1 (centres unmarked) [compound 282, 3-(3-methyl-1,1-dioxido-1,2,5-thiadiazolidin-3-yl)-6-(naphthalen-2-yl)pyridin-2(1H)-one] | 740 nM | 900 nM
12 | CC1(c2ccc(-c3ccc4ccccc4c3)[nH]c2=O)CN/C(=N\C#N)N1 (centres unmarked) [compound 283] | 49 nM | 180 nM
13 | CC1(c2ccc(-c3ccc4ccccc4c3)[nH]c2=O)CNC(=S)N1 (centres unmarked) [compound 286, 4-[2-hydroxy-6-(naphthalen-2-yl)pyridin-3-yl]-4-methylimidazolidine-2-thione] | 64 nM | 179 nM
14 | CC1(c2ccc(-c3ccc4ccccc4c3)[nH]c2=O)CNC(N)=N1 (centres unmarked) [compound 287, 3-(2-amino-4-methyl-4,5-dihydro-1H-imidazol-4-yl)-6-(naphthalen-2-yl)pyridin-2(1H)-one] | 157 nM | 8680 nM
15 | CC1(c2ccc(-c3ccc4ccccc4c3)[nH]c2=O)CN/C(=N\O)N1 (centres unmarked) [compound 288, 3-[(2E)-2-(hydroxyimino)-4-methylimidazolidin-4-yl]-6-(naphthalen-2-yl)-1,2-dihydropyridin-2-one] | 180 nM | 656 nM
16 | CN(C)C1=NC(C)(c2ccc(-c3ccc4ccccc4c3)[nH]c2=O)CN1 (centres unmarked) [compound 289, 3-[2-(dimethylamino)-4-methyl-4,5-dihydro-1H-imidazol-4-yl]-6-(naphthalen-2-yl)-1,2-dihydropyridin-2-one] | 1800 nM | > 20000 nM
17 | CC1(c2ccc(-c3ccc4ccccc4c3)[nH]c2=O)CNC(NS(C)(=O)=O)=N1 (centres unmarked) [compound 290, N-[4-methyl-4-[6-(naphthalen-2-yl)-2-oxo-1,2-dihydropyridin-3-yl]-4,5-dihydro-1H-imidazol-2-yl]methanesulfonamide] | 116 nM | 1910 nM
18 | CC(C)C1(c2ccc(-c3ccc4cccc(F)c4c3)[nH]c2=O)CNC(NC#N)=N1 (centres unmarked) [compound 291, N-(4-(6-(8-fluoronaphthalen-2-yl)-2-oxo-1,2-dihydropyridin-3-yl)-4-isopropyl-4,5-dihydro-1H-imidazol-2-yl)cyanamide] | 3 nM | 19 nM
19 | CONC1=NC(c2ccc(-c3ccc4cccc(F)c4c3)[nH]c2=O)(C(C)C)CN1 (centres unmarked) [compound 292, (Z)-6-(8-fluoronaphthalen-2-yl)-3-(4-isopropyl-2-(methoxyimino)imidazolidin-4-yl)pyridin-2(1H)-one] | 2 nM | 6 nM
20 | CO/N=C1\NCC(c2cc(C)c(-c3ccc4cccc(F)c4c3)[nH]c2=O)(C(C)C)N1 (centres unmarked) [compound 293, (E)-6-(8-fluoronaphthalen-2-yl)-3-(4-isopropyl-2-(methoxyimino)imidazolidin-4-yl)-5-methylpyridin-2(1H)-one] | 14 nM | 207 nM
21 | CC(C)C1(c2ccc(-c3ccc4cccc(F)c4c3)[nH]c2=O)NC(=S)NC1=O (centres unmarked) [compound 294, 6-(8-fluoronaphthalen-2-yl)-3-(4-isopropyl-5-oxo-2-thioxoimidazolidin-4-yl)pyridin-2(1H)-one] | 6 nM | 56 nM
22 | CCn1ncc2c(F)cc(-c3ccc(C4(O)CCCN(S(=O)(=O)C(C)C)C4)c(=O)[nH]3)cc21 (centres unmarked) [compound 295, 6-(1-ethyl-4-fluoro-1H-indazol-6-yl)-3-(3-hydroxy-1-(isopropylsulfonyl)piperidin-3-yl)pyridin-2(1H)-one] | 2 nM | 79 nM
23 | CCn1ncc2c(F)cc(-c3ccc(C4(F)CCCN(S(=O)(=O)C(C)C)C4)c(=O)[nH]3)cc21 (centres unmarked) [compound 296, 6-(1-ethyl-4-fluoro-1H-indazol-6-yl)-3-(3-fluoro-1-(isopropylsulfonyl)piperidin-3-yl)pyridin-2(1H)-one] | 1 nM | 103 nM
24 | CCn1ncc2c(F)cc(-c3ccc(C4=CCN(S(=O)(=O)C(C)C)C4)c(=O)[nH]3)cc21 [compound 297, 6-(1-ethyl-4-fluoro-1H-indazol-6-yl)-3-(1-(isopropylsulfonyl)-2,5-dihydro-1H-pyrrol-3-yl)pyridin-2(1H)-one] | 8 nM | 194 nM
25 | CCn1ncc2c(F)cc(-c3ccc(C4(O)CN(S(=O)(=O)C(C)C)C4)c(=O)[nH]3)cc21 [compound 298, 6-(1-ethyl-4-fluoro-1H-indazol-6-yl)-3-(3-hydroxy-1-(isopropylsulfonyl)azetidin-3-yl)pyridin-2(1H)-one] | 979 nM | 8300 nM
26 | CC(C)/C(=C1\OC(=O)NC1=O)c1ccc(-c2ccc3cccc(F)c3c2)[nH]c1=O [compound 304, (E)-5-(1-(6-(8-fluoronaphthalen-2-yl)-2-oxo-1,2-dihydropyridin-3-yl)-2-methylpropylidene)oxazolidine-2,4-dione] | 270 nM | 680 nM
27 | CC(C)C(Cc1ccc(-c2ccc3cccc(F)c3c2)[nH]c1=O)c1ncc[nH]1 (centres unmarked) [compound 307, 3-(2-(1H-Imidazol-2-yl)-3-methylbutyl)-6-(8-fluoronaphthalen-2-yl)pyridin-2(1H)-one] | 53 nM | 385 nM
28 | CC(C)C(Cc1ccc(-c2ccc3cccc(F)c3c2)[nH]c1=O)c1nnc[nH]1 (centres unmarked) [compound 309, 6-(8-Fluoronaphthalen-2-yl)-3-(3-methyl-2-(4H-1,2,4-triazol-3-yl)butyl)pyridin-2(1H)-one] | 12 nM | 66 nM
